Experiments:
MDBK cells = test: Cytotoxicity assay (MTT) on MDBK cells; assay type: cell-based, bovine; details: 32, 16, 8 µg/mL; MTT test
Procedure: The cytotoxicity assay was performed using the 3-(4,5-dimethylthiazol-2-yl)-2,5-diphenyltetrazolium bromide (MTT) test, following the procedure used by Donofrio et al.. MDBK cells were cultured on microtiter tissue culture plates in DMEM medium for 24 h at 37 °C in the presence of 5% CO2. After incubation, when the cell monolayer was at confluence, an aliquot of 1 µL of UPAR415 in DMSO at different concentrations was added in each well, containing a volume of 100 µL of DMEM medium and MDBK cells, and then the plates were reincubated at the same conditions. After incubation, 10 µL of MTT at 200 mg/mL (3-(4,5-dimethylthiazol-2-yl)-2,5-diphenyltetrazolium bromide) was added to each well and incubated at 37 °C for 6 h. At the end of the incubation, 100 µL of the solubilization solution (10% SDS in 0.01 M HCl) was added to each well and then incubated overnight. The MTT compound, a yellow tetrazolium salt, is reduced by mitochondrial enzymes (succinate dehydrogenase) of metabolically active eukaryotic cells to insoluble formazan crystals. In the presence of metabolically active cells, after the addition of a detergent solution (10% SDS in […]) that allows the formazan to be released from the cells, a violet color is seen in the medium. Instead, in the presence of non-viable cells, MTT is not reduced to formazan and therefore the solution will remain yellow.
After incubation, plates were read with a spectrophotometer at 620 nm. Positive controls (PC)—without any compounds—and PCs with 1% DMSO were performed for each plate and three replicates for two independent experiments were performed for each assay.

StOASS-B = molecular target: T1, StOASS-B (Salmonella typhimurium, UniProt P29848); test: Fluorescence binding assay on purified recombinant StOASS-B
T1 construct: His-tag (with TEV site) (cleaved yes); made in house; host or cells: E. coli Rosetta (DE3)
T1 sequence (P29848 1-303): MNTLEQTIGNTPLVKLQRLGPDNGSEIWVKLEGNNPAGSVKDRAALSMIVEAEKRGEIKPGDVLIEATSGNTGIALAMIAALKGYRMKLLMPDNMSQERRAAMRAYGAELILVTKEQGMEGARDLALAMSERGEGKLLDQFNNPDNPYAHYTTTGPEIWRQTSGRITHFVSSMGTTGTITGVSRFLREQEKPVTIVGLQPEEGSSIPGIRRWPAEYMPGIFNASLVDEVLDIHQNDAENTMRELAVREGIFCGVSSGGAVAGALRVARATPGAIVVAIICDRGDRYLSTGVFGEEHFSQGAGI
Procedure: The affinity of the compounds for StOASS-A and StOASS-B was determined on the purified recombinant proteins by an in vitro fluorescence binding assay. Measurements were carried out at 20 °C in a 3 mm pathlength quartz microcuvette in 100 mM HEPES, 5% DMSO (Applichem, Darmstadt, Germany), pH 7.0, using a Fluoromax-4 (Horiba Jobin-Yvon, Kyoto, Japan) spectrofluorometer. Emission spectra of solutions containing 0.2–1.0 μM StOASS, upon excitation of the pyridoxal 5′-phosphate cofactor at 412 nm, in the presence of increasing concentrations of compounds were collected; fluorescence intensities at 500 nm were plotted to compound concentration and data were fitted to a binding isotherm: I=I0+ΔI·compound/KD+compound where I is the fluorescence emission intensity at 500 nm in the presence of a given concentration of compound, I0 is the initial fluorescence emission in the absence of ligands, ΔI is the amplitude of the fluorescence emission change and KD is the dissociation constant. When the KD was lower than the protein concentration, data were fitted to the quadratic equation: I=I0+ΔI·OASS+compound+KD−OASS+compound+KD^2−4·OASS·compound/2
Data were collected in duplicate.
Esters were tested up to a concentration of 100 μM and no binding was observed.

E. coli ATCC 25922 = test: MIC by broth microdilution, E. coli; assay type: cell-based, Escherichia coli; details: Escherichia coli, ATCC25922; compound alone, MHB, 24 h at 37 °C; read-out: MIC (μg/mL) E.coli ATCC 25922
Procedure: MIC values were evaluated following CLSI guidelines with some modifications, as referred to in previous work. Twofold dilutions 25.6–0.05 mg/mL of the tested compounds were performed in DMSO in separate 96-well microtiter U-plates (Greiner, Milan, Italy). In a different 96-well microtiter U-plate, for each well of the replicates, 49 µL of broth medium were added. Then, in each well of the plate, one microliter of each compound at variable dilution in DMSO was added. For each test, three independent experiments with three replicates each were performed. Tested reference bacterial strains (E. coli ATCC25922; S. Typhimurium ATCC14028; K. pneumoniae ATCC13883) were brought to the logarithmic phase of growth in MHB medium by incubation at 37 °C for 24 h. After incubation, bacterial suspensions were centrifuged (2000 rpm, 4 °C for 20 min), and then the pellets were resuspended in 100 mM phosphate buffer, pH 7.0, to reach a final bacterial concentration of 10^8 CFU/mL, adjusted by spectrophotometry (OD620nm ranged between 0.08–0.13). The obtained suspensions were further diluted 1:100 in broth medium to reach a bacterial concentration of 10^6 CFU/mL. Fifty µL of the bacterial suspension containing 10^6 CFU/mL were inoculated into each well within 30 min, to obtain a final concentration of 5 × 10^5 CFU/mL in a total volume of 100 µL. The final dilution range tested was 256–0.5 µg/mL. Growth and sterility controls were performed for each strain and for each tested compound. Plates were then incubated for 24 h at 37 °C in a static aerobic atmosphere. After incubation, plates were read by unaided eye with a microtiter reading mirror and then the OD of each well of the plates was measured spectrophotometrically at 620 nm. MIC values were calculated as the arithmetic mean ± standard deviation (SD) of the unaided eye reading and the inhibition of growth for each tested dilution was calculated from the OD values (mean ± SD). A quality control microorganism (E. coli ATCC 25922) was tested periodically to validate the accuracy of the procedure.

Row | Structure (SMILES) | Toxicity on viability of MDBK cells (MDBK cells) | Kd (StOASS-B) | MIC (E. coli ATCC 25922) | KD (μM) OASS-B (StOASS-B; 20 °C, 100 mM HEPES, 5% DMSO, pH 7.0, racemic mixture, esters tested up to 100 μM)
1 | Cc1ccc(CC2(C(=O)O)CC2c2cccc(N3CC(C)OC(C)C3)c2)cc1 (stereo not drawn) [Compound 13h, trans-2-(3-(2,6-dimethylmorpholino)phenyl)-1-(4-methylbenzyl)cyclopropanecarboxylic acid] | lowest toxicity profile | 3.37 ± 0.72 µM | > 512 µg/mL | –
2 | CCOC(=O)C1(Cc2ccc(C)cc2)CC1c1cccc(N2CC(C)OC(C)C2)c1 (stereo not drawn) [Compound 12h, trans-ethyl 2-(3-(2,6-dimethylmorpholino)phenyl)-1-(4-methylbenzyl)cyclopropanecarboxylate] | lowest toxicity profile | – | > 512 µg/mL | No binding

Reference: article PMC9227781, “Inhibitors of O-Acetylserine Sulfhydrylase with a Cyclopropane-Carboxylic Acid Scaffold Are Effective Colistin Adjuvants in Gram Negative Bacteria” (Pharmaceuticals, 2022)
